Assays:
129S6/SvEv mice [1] = test: Anxiety-like behavior, summary of anxiety tests (OF, MB, EPM); assay type: in vivo
Experimental: Testing was performed as previously described (47). Briefly, the maze is a plus-cross-shaped apparatus consisting of four arms, two open and two enclosed by walls, linked by a central platform at a height of 50 cm from the floor. Mice were individually placed in the center of the maze facing an open arm and were allowed to explore the maze for 5 min. The time spent in and the number of entries into the open arms was used as an anxiety index. Videos were scored using ANY-maze behavior tracking software (Stoelting, Wood Dale, Ill.).
The OF assay was administered as previously described (47). Briefly, motor activity was quantified in 4 Plexiglas open field boxes 43×43 cm^2 (MED Associates, Georgia, Vt.). Two sets of 16 pulse-modulated infrared photobeams on opposite walls 2.5-cm apart recorded x-y ambulatory movements. Activity chambers were computer interfaced for data sampling at 100-ms resolution. The computer defined grid lines that dividing center and surround regions, with the center square consisting of four lines 11 cm from the wall.
The MB assay was conducted in a clean cage (10.5 in×5.5 in) containing soft pliable Beta Chip bedding (Northeastern Products Corp, Warrensburg, N.Y.). The cage contained 16 marbles set up in 4 rows of 4 across. Mice were given 30 minutes to explore and bury. At the end of the assay, the percentage of marbles buried was calculated.

[2] = tested on: NR2A subunit of the NMDAR; test: Western blotting of hippocampus after fear memory recall; assay type: in vivo, mice; conditions: one week prior to CFC, (R,S)-ketamine 30 mg/kg, FENM 20 mg/kg, vs saline
Experimental: Samples from mouse hippocampus and prefrontal cortex were dissected, snap frozen, and stored at −80° C. Brain tissue was homogenized in RIPA buffer with protease inhibitor (Thermo Fisher Scientific, Waltham, Mass.; Roche, Basel, Switzerland) using a motorized pestle mixer (Argos Technologies, Vernon Hills, Ill.) and spun at 1000 g×14 minutes to remove cell debris. Protein concentration was determined using a Bradford protein assay (Bio-Rad, Hercules, Calif.). 4× Laemmli buffer and β-mercaptoethanol (Bio-Rad, Hercules, Calif.) was added to the samples, which were then boiled at 90° C. for five minutes. 50 μg of each sample was separated by SDS/PAGE, and proteins were transferred onto PVDF membrane (GE Healthcare Life Sciences, Marlborough, Mass.). Membranes were then blocked in 1×TBS with 0.1% Tween-20 and 5% BSA for 1 hr at RT. Incubation with primary antibodies was performed at 4° C. overnight (rabbit anti-β-tubulin, 1:10000, Abc am, Cambridge, UK, ab6046; rabbit anti-NR2A, 1:1000, Alomone Labs, Jerusalem, Israel, AGC-002; rabbit anti-NR2B, 1:600, Alomone Labs, Jerusalem, Israel, AGC-003; mouse anti-GluR1, 1:1000, Millipore Sigma, Burlington, Mass., MAB2263) in 1×TBS with 0.1% Tween-20 and 5% BSA. […]

129S6/SvEv mice [3] = test: Forced swim test (FST); immobility time; assay type: in vivo; conditions: for p, Fisher's PLSD Saline vs. drug, FST Day 2 Immobility Time (sec): drug 1 week before stress; for p, Fisher's PLSD Saline vs. drug, FST Day 2 Immobility Time Min 1 (s) / p, Fisher's PLSD Saline vs. drug, FST Day 2 Immobility Time Min 2 (s) / p, Fisher's PLSD Saline vs. drug, FST Day 2 Immobility Time Min 3 (s) / p, Fisher's PLSD Saline vs. drug, FST Day 2 Immobility Time Min 4 (s) / p, Fisher's PLSD Saline vs. drug, FST Day 2 Immobility Time Min 5 (s) / p, Fisher's PLSD Saline vs. drug, FST Day 2 Immobility Time Min 6 (s) / p, Fisher's PLSD Saline vs. drug, FST Day 2 Immobility Time (s): drug 5 minutes after stress; for p, Fisher's PLSD Saline vs. drug, FST Day 2 Immobility Time Min 1 (s) / p, Fisher's PLSD Saline vs. drug, FST Day 2 Immobility Time Min 2 (s) / p, Fisher's PLSD Saline vs. drug, FST Day 2 Immobility Time Min 3 (s) / p, Fisher's PLSD Saline vs. drug, FST Day 2 Immobility Time Min 4 (s) / p, Fisher's PLSD Saline vs. drug, FST Day 2 Immobility Time Min 5 (s) / p, Fisher's PLSD Saline vs. drug, FST Day 2 Immobility Time Min 6 (s): FIG. 2F; for p, Fisher's PLSD Saline vs. drug, FST Day 2 Immobility Time (s): FIG. 2G
Experimental: The FST was administered as previously described (47). Briefly, mice were placed into clear plastic buckets 20 cm in diameter and 23 cm deep filled ⅔ of the way with 22° C. water. Mice were videotaped from the side for 6 min and were exposed to the swim test on 2 consecutive days Immobility time was scored by an experimenter blind to the experimental groups.

[4] = (R,S)-ketamine (30 mg/kg) vs. FENM (20 mg/kg), FIG. 8H

## NC12CC3CC(C1)CC(CCF)(C3)C2 [FENM, 1-amino-3-fluoroethyl-adamantane]
129S6/SvEv mice [1]; 5 min after context re-exposure 1, (R,S)-ketamine 30 mg/kg, FENM 20 mg/kg, vs saline
  behavior in all anxiety tests, with the exception of the time spent in the center of the OF: did not alter behavior
129S6/SvEv mice [1]; 5 minutes prior to context re-exposure 1 (24 h after CFC), (R,S)-ketamine 30 mg/kg, FENM 20 mg/kg, vs saline
  behavior in all anxiety tests: did not alter behavior
129S6/SvEv mice [1]; Antidepressant (5 min after stress), dose 20 mg/kg
  Behavior: Anxiety-like: ↓
129S6/SvEv mice [1]; Antidepressant (5 min after stress), dose 30 mg/kg
  Behavior: Anxiety-like: ↓
129S6/SvEv mice [1]; Extinction (5 min after re-exposure 1), dose 20 mg/kg
  Behavior: Anxiety-like: ↓
[2]
  NR2A expression in the hippocampus: comparable
129S6/SvEv mice [3]; 10 mg/kg, after ANOVA, FIG. 1G
  p, Fisher's PLSD Saline vs. drug, FST Day 2 Immobility Time (sec): 0.0307
129S6/SvEv mice [3]; 10 mg/kg, after RMANOVA, FIG. 1F
  p, Fisher's PLSD Saline vs. drug, FST Day 2 Immobility Time (sec): 0.0085
129S6/SvEv mice [3]; 10 mg/kg
  p, Fisher's PLSD Saline vs. drug, FST Day 2 Immobility Time Min 1 (s): 0.3105
  p, Fisher's PLSD Saline vs. drug, FST Day 2 Immobility Time Min 2 (s): 0.2275
  p, Fisher's PLSD Saline vs. drug, FST Day 2 Immobility Time Min 3 (s): 0.0949
  p, Fisher's PLSD Saline vs. drug, FST Day 2 Immobility Time Min 4 (s): 0.1329
  p, Fisher's PLSD Saline vs. drug, FST Day 2 Immobility Time Min 5 (s): 0.4763
  p, Fisher's PLSD Saline vs. drug, FST Day 2 Immobility Time Min 6 (s): 0.4453
129S6/SvEv mice [3]; 10 mg/kg, after ANOVA
  p, Fisher's PLSD Saline vs. drug, FST Day 2 Immobility Time (s): 0.0204
129S6/SvEv mice [3]; 20 mg/kg, after ANOVA, FIG. 1G
  p, Fisher's PLSD Saline vs. drug, FST Day 2 Immobility Time (sec): <0.0001
129S6/SvEv mice [3]; 20 mg/kg, after RMANOVA, FIG. 1F
  p, Fisher's PLSD Saline vs. drug, FST Day 2 Immobility Time (sec): <0.0001
129S6/SvEv mice [3]; 30 mg/kg, after ANOVA, FIG. 1G
  p, Fisher's PLSD Saline vs. drug, FST Day 2 Immobility Time (sec): 0.0005
129S6/SvEv mice [3]; 30 mg/kg, after RMANOVA, FIG. 1F
  p, Fisher's PLSD Saline vs. drug, FST Day 2 Immobility Time (sec): 0.0003
129S6/SvEv mice [3]; 30 mg/kg
  p, Fisher's PLSD Saline vs. drug, FST Day 2 Immobility Time Min 1 (s): 0.9988
  p, Fisher's PLSD Saline vs. drug, FST Day 2 Immobility Time Min 2 (s): <0.0001
  p, Fisher's PLSD Saline vs. drug, FST Day 2 Immobility Time Min 3 (s): 0.2804
  p, Fisher's PLSD Saline vs. drug, FST Day 2 Immobility Time Min 4 (s): 0.4890
  p, Fisher's PLSD Saline vs. drug, FST Day 2 Immobility Time Min 5 (s): 0.8673
  p, Fisher's PLSD Saline vs. drug, FST Day 2 Immobility Time Min 6 (s): 0.6591
129S6/SvEv mice [3]; 30 mg/kg, after ANOVA
  p, Fisher's PLSD Saline vs. drug, FST Day 2 Immobility Time (s): 0.0210
129S6/SvEv mice [3]; 5 minutes after CFC, re-exposure 1 day after training, (R,S)-ketamine 30 mg/kg, FENM 20 mg/kg, vs saline
  immobility time, day 2 of the FST: significantly reduced immobility time
129S6/SvEv mice [3]; [4]
  Forced Swim Test Day 1, Immobility Time Min 1 (sec), p (Fisher's LSD): 0.2548
  Forced Swim Test Day 1, Immobility Time Min 2 (sec), p (Fisher's LSD): 0.5009
  Forced Swim Test Day 1, Immobility Time Min 3 (sec), p (Fisher's LSD): 0.4155
  Forced Swim Test Day 1, Immobility Time Min 4 (sec), p (Fisher's LSD): 0.7067
  Forced Swim Test Day 1, Immobility Time Min 5 (sec), p (Fisher's LSD): 0.3041
  Forced Swim Test Day 1, Immobility Time Min 6 (sec), p (Fisher's LSD): 0.8903
129S6/SvEv mice [3]; (R,S)-ketamine (30 mg/kg) vs. FENM (20 mg/kg), after ANOVA, FIG. 8K
  Forced Swim Test Day 2, Immobility Time (sec), p (Fisher's LSD): 0.0713
129S6/SvEv mice [3]; (R,S)-ketamine (30 mg/kg) vs. FENM (20 mg/kg), after RMANOVA, FIG. 8J
  Forced Swim Test Day 2, Immobility Time (sec), p (Fisher's LSD): 0.0712

From patent US20220071932A1, “Compositions and Methods Against Stress-Induced Affective Disorders and Their Associated Symptoms” (The Trustees of Columbia University in the City of New York, priority 2019, published 2022)
